Earlier results as cited in US8686137B2, “Heterocyclic compounds and their uses” (Amgen Inc., priority 2010, dated 2014).

Legend:
[1] = system: mouse model of rheumatoid arthritis; details: in vivo
[2] = system: model of systemic lupus erythematosis; details: in vivo
p110δ = molecular target: T1, p110δ (Homo sapiens, UniProt O00329)
T1 sequence (O00329 1-1044): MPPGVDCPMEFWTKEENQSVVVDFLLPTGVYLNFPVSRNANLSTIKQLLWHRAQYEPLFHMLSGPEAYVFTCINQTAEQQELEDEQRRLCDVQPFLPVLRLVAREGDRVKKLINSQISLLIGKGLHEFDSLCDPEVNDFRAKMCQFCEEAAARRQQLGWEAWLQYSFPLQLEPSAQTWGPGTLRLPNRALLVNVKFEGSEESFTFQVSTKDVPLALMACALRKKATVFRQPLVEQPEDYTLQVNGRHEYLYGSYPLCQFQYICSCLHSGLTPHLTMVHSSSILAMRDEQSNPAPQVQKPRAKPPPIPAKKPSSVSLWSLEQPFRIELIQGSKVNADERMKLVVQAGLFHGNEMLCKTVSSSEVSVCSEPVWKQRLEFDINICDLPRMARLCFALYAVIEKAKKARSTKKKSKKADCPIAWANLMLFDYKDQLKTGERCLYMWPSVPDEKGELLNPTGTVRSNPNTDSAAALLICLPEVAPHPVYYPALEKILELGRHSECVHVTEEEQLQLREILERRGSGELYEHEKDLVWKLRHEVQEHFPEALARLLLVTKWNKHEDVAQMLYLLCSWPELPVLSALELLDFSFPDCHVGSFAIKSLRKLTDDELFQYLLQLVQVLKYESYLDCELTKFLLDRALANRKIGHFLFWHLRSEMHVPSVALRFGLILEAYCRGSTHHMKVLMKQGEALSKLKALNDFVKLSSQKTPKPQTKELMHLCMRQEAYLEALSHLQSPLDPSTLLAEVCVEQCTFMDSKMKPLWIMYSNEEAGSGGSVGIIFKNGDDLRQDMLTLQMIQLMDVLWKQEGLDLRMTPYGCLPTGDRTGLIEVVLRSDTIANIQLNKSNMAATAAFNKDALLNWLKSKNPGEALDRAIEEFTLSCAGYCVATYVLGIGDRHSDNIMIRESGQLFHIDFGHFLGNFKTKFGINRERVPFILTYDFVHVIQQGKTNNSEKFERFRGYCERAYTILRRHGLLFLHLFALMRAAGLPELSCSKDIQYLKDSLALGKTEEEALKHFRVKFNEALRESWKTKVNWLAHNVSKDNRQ

[3] = system: passive cutaneous anaphylaxis (PCA); details: absence of functional delta (compound or p110δ D910A mice)
[4] = system: ovalbumin-induced airway inflammation

| SMILES | efficacy in a mouse model of rheumatoid arthritis [1] | onset of disease in a model of systemic lupus erythematosis [2] | inhibits p110δ (p110δ) | activity against any protein kinases tested (protein kinases) | passive cutaneous anaphylaxis (PCA) [3] | inflammation and disease in a murine model of asthma [4] |
| --- | --- | --- | --- | --- | --- | --- |
| O=C1NC(=O)/C(=C\c2ccc3nccnc3c2)S1 [AS 605240] | efficacious | delay onset of disease | – | – | – | – |
| Cc1ccccc1-n1c(Cn2cnc3c(N)ncnc32)nc2cccc(C)c2c1=O [IC87114] | – | – | high nanomolar range (triple digit) | no activity | significantly reduced | significantly ameliorate |
